Source: US10112941B2, “Tricyclic compounds as anticancer agents” (BRISTOL-MYERS SQUIBB COMPANY, priority 2013, dated 2018)

biological target: BRD4 (Homo sapiens, UniProt O60885); assay: Time Resolved Fluorescence Resonance Energy Transfer (TR-FRET) binding assay, BRD4; details: one of the FRET assays described; read-out: FRET BRD4 IC50

Question: How did the IC50 turn out when Cc1nnn(C)c1-c1cnc2c3ccc(S(C)(=O)=O)cc3n([C@H](c3ccc(F)cc3)C3CCOCC3)c2c1 [Example 178, 5-{5-[(S)-(4-Fluorophenyl)(oxan-4-yl)methyl]-7-methanesulfonyl-5H-pyrido[3,2-b]indol-3-yl}-1,4-dimethyl-1H-1,2,3-triazole] was run?
Answer: Its IC50 is under 5 nM.

Question: For Cn1nnc(CO)c1-c1cnc2c3ccc(S(C)(=O)=O)cc3n([C@H](c3ccccc3)C3CCOCC3)c2c1 [Example 179, (5-{7-Methanesulfonyl-5-[(S)-oxan-4-yl(phenyl)methyl]-5H-pyrido[3,2-b]indol-3-yl}-1-methyl-1H-1,2,3-triazol-4-yl)methanol], which IC50 is on record?
Answer: The IC50 was under 5 nM.

Question: For Cn1nnc(CF)c1-c1cnc2c3ccc(S(C)(=O)=O)cc3n([C@H](c3ccccc3)C3CCOCC3)c2c1 [Example 180, 4-(Fluoromethyl)-5-{7-methanesulfonyl-5-[(S)-oxan-4-yl(phenyl)methyl]-5H-pyrido[3,2-b]indol-3-yl}-1-methyl-1H-1,2,3-triazole], which IC50 is on record?
Answer: The IC50 was under 5 nM.

Question: With Cc1nnn(C)c1-c1cnc2c3c(F)ccc(S(C)(=O)=O)c3n([C@H](c3ccccc3)C3CCOCC3)c2c1 [Example 181, 5-{9-Fluoro-6-methanesulfonyl-5-[(S)-oxan-4-yl(phenyl)methyl]-5H-pyrido[3,2-b]indol-3-yl}-1,4-dimethyl-1H-1,2,3-triazole] as the compound, how does the IC50 read?
Answer: Its IC50 is under 5 nM.

Question: With COc1ccc(S(C)(=O)=O)c2c1c1ncc(-c3c(C)nnn3C)cc1n2[C@H](c1ccccc1)C1CCOCC1 [Example 182, 5-{6-Methanesulfonyl-9-methoxy-5-[(S)-oxan-4-yl(phenyl)methyl]-5H-pyrido[3,2-b]indol-3-yl}-1,4-dimethyl-1H-1,2,3-triazole] as the compound, how does the IC50 read?
Answer: The IC50 was under 5 nM.

Question: Which IC50 does the source give for [2H]C([2H])([2H])c1nnn(C)c1-c1cnc2c3c(OC)ccc(S(C)(=O)=O)c3n([C@H](c3ccccc3)C3CCOCC3)c2c1 [Example 183, 5-{6-Methanesulfonyl-9-methoxy-5-[(S)-oxan-4-yl(phenyl)methyl]-5H-pyrido[3,2-b]indol-3-yl}-4-(^2H3)methyl-1-methyl-1H-1,2,3-triazole] here?
Answer: Its IC50 is under 5 nM.

Question: How did the IC50 turn out when [2H]C([2H])([2H])Oc1ccc(S(=O)(=O)C([2H])([2H])[2H])c2c1c1ncc(-c3c(C)nnn3C)cc1n2[C@H](c1ccccc1)C1CCOCC1 [Example 184, 5-[6-(^2H3)Methanesulfonyl-9-(^2H3)methoxy-5-[(S)-oxan-4-yl(phenyl)methyl]-5H-pyrido[3,2-b]indol-3-yl]-1,4-dimethyl-1H-1,2,3-triazole] was run?
Answer: Its IC50 is under 5 nM.

Question: With COc1ccc(S(C)(=O)=O)c2c1c1ncc(-c3c(C)noc3C)cc1n2[C@H](c1ccccc1)C1CCOCC1 [Example 185, 4-{6-Methanesulfonyl-9-methoxy-5-[(S)-oxan-4-yl(phenyl)methyl]-5H-pyrido[3,2-b]indol-3-yl}-3,5-dimethyl-1,2-oxazole] as the compound, how does the IC50 read?
Answer: Its IC50 is under 5 nM.

Question: For COc1ccc(S(C)(=O)=O)c2c1c1ncc(-c3c(C)noc3C)cc1n2[C@H](c1ccccc1F)C1CCOCC1 [Example 186, 4-{5-[(S)-(2-Fluorophenyl)(oxan-4-yl)methyl]-6-methanesulfonyl-9-methoxy-5H-pyrido[3,2-b]indol-3-yl}-3,5-dimethyl-1,2-oxazole], which IC50 is on record?
Answer: Its IC50 is under 5 nM.

Question: With COc1ccc(S(C)(=O)=O)c2c1c1ncc(-c3c(C)noc3C)cc1n2[C@H](c1ccc(F)cc1)C1CCOCC1 [Example 187, 4-{5-[(S)-(4-Fluorophenyl)(oxan-4-yl)methyl]-6-methanesulfonyl-9-methoxy-5H-pyrido[3,2-b]indol-3-yl}-3,5-dimethyl-1,2-oxazole] as the compound, how does the IC50 read?
Answer: The IC50 was under 5 nM.

Question: How did the IC50 turn out when COc1ccc(S(C)(=O)=O)c2c1c1ncc(-c3c(C)nnn3C)cc1n2[C@H](c1ccccc1F)C1CCOCC1 [Example 188, 5-{5-[(S)-(2-Fluorophenyl)(oxan-4-yl)methyl]-6-methanesulfonyl-9-methoxy-5H-pyrido[3,2-b]indol-3-yl}-1,4-dimethyl-1H-1,2,3-triazole] was run?
Answer: The IC50 was under 5 nM.

Question: Which IC50 does the source give for [2H]C([2H])([2H])c1nnn(C)c1-c1cnc2c3c(OC)ccc(S(C)(=O)=O)c3n([C@H](c3ccccc3F)C3CCOCC3)c2c1 [Example 189, 5-{5-[(S)-(2-Fluorophenyl)(oxan-4-yl)methyl]-6-methanesulfonyl-9-methoxy-5H-pyrido[3,2-b]indol-3-yl}-4-(^2H3)methyl-1-methyl-1H-1,2,3-triazole] here?
Answer: Its IC50 is under 5 nM.

Question: Which IC50 does the source give for COc1ccc(S(C)(=O)=O)c2c1c1ncc(-c3c(C)nnn3C)cc1n2[C@H](c1ccc(F)cc1)C1CCOCC1 [Example 190, 5-{5-[(S)-(4-Fluorophenyl)(oxan-4-yl)methyl]-6-methanesulfonyl-9-methoxy-5H-pyrido[3,2-b]indol-3-yl}-1,4-dimethyl-1H-1,2,3-triazole] here?
Answer: The IC50 was under 5 nM.

Question: [2H]C([2H])([2H])c1nnn(C)c1-c1cnc2c3c(OC)ccc(S(C)(=O)=O)c3n([C@H](c3ccc(F)cc3)C3CCOCC3)c2c1 [Example 191, 5-{5-[(S)-(4-Fluorophenyl)(oxan-4-yl)methyl]-6-methanesulfonyl-9-methoxy-5H-pyrido[3,2-b]indol-3-yl}-4-(^2H3)methyl-1-methyl-1H-1,2,3-triazole] was tested. Which IC50 did it give?
Answer: The IC50 was under 5 nM.

Question: With [2H]C([2H])([2H])c1onc(C)c1-c1cnc2c3ccc(C(C)(C)O)cc3n([C@H](c3ccccc3)C3CCOCC3)c2c1 [Example 192, 2-{3-[5-(^2H3)Methyl-3-methyl-1,2-oxazol-4-yl]-5-[(S)-oxan-4-yl(phenyl)methyl]-5H-pyrido[3,2-b]indol-7-yl}propan-2-ol] as the compound, how does the IC50 read?
Answer: Its IC50 is under 5 nM.

Question: For [2H]C([2H])([2H])c1onc(C)c1-c1cnc2c3c(OC)ccc(S(=O)(=O)C([2H])([2H])[2H])c3n([C@H](c3ccccc3)C3CCOCC3)c2c1 [Example 193, 4-[6-(^2H3)Methanesulfonyl-9-methoxy-5-[(S)-oxan-4-yl(phenyl)methyl]-5H-pyrido[3,2-b]indol-3-yl]-5-(^2H3)methyl-3-methyl-1,2-oxazole], which IC50 is on record?
Answer: The IC50 was under 5 nM.

Question: For Cc1nnn(C)c1-c1cnc2c3c(F)cc(S(C)(=O)=O)cc3n([C@H](c3ccccc3)C3CCOCC3)c2c1 [Example 194, 5-{9-Fluoro-7-methanesulfonyl-5-[(S)-oxan-4-yl(phenyl)methyl]-5H-pyrido[3,2-b]indol-3-yl}-1,4-dimethyl-1H-1,2,3-triazole], which IC50 is on record?
Answer: Its IC50 is under 5 nM.

Question: For [2H]C([2H])([2H])c1nnn(C)c1-c1cnc2c3c(F)cc(S(C)(=O)=O)cc3n([C@H](c3ccccc3)C3CCOCC3)c2c1 [Example 195, 5-{9-Fluoro-7-methanesulfonyl-5-[(S)-oxan-4-yl(phenyl)methyl]-5H-pyrido[3,2-b]indol-3-yl}-4-(^2H3)methyl-1-methyl-1H-1,2,3-triazole], which IC50 is on record?
Answer: The IC50 was under 5 nM.

Question: Which IC50 does the source give for [2H]C([2H])([2H])c1nnn(C)c1-c1cnc2c3c(F)cc(S(C)(=O)=O)cc3n([C@H](c3ccccc3F)C3CCOCC3)c2c1 [Example 196, 5-{9-Fluoro-5-[(S)-(2-fluorophenyl)(oxan-4-yl)methyl]-7-methanesulfonyl-5H-pyrido[3,2-b]indol-3-yl}-4-(^2H3)methyl-1-methyl-1H-1,2,3-triazole] here?
Answer: Its IC50 is under 25 nM.

Question: With [2H]C([2H])([2H])c1nnn(C)c1-c1cnc2c3c(OC)cc(S(C)(=O)=O)cc3n([C@H](c3ccccc3)C3CCOCC3)c2c1 [Example 197, 5-{7-Methanesulfonyl-9-methoxy-5-[(S)-oxan-4-yl(phenyl)methyl]-5H-pyrido[3,2-b]indol-3-yl}-4-(^2H3)methyl-1-methyl-1H-1,2,3-triazole] as the compound, how does the IC50 read?
Answer: The IC50 was under 5 nM.

Question: [2H]C([2H])([2H])c1nnn(C)c1-c1cnc2c3c(OC)cc(S(C)(=O)=O)cc3n([C@H](c3ccccc3F)C3CCOCC3)c2c1 [Example 198, 5-{5-[(S)-(2-Fluorophenyl)(oxan-4-yl)methyl]-7-methanesulfonyl-9-methoxy-5H-pyrido[3,2-b]indol-3-yl}-4-(^2H3)methyl-1-methyl-1H-1,2,3-triazole] was tested. Which IC50 did it give?
Answer: The IC50 was under 5 nM.

Question: [2H]C([2H])([2H])c1nnn(C)c1-c1cnc2c3c(F)cc(S(C)(=O)=O)cc3n([C@H](c3ccc(F)cc3)C3CCOCC3)c2c1 [Example 201, 5-{9-Fluoro-5-[(S)-(4-fluorophenyl)(oxan-4-yl)methyl]-7-methanesulfonyl-5H-pyrido[3,2-b]indol-3-yl}-4-(^2H3)methyl-1-methyl-1H-1,2,3-triazole] was tested. Which IC50 did it give?
Answer: Its IC50 is under 5 nM.

Question: Which IC50 does the source give for [2H]C([2H])([2H])c1nnn(C)c1-c1cnc2c3c(OC)cc(S(C)(=O)=O)cc3n([C@H](c3ccc(F)cc3)C3CCOCC3)c2c1 [Example 202, 5-{5-[(S)-(4-Fluorophenyl)(oxan-4-yl)methyl]-7-methanesulfonyl-9-methoxy-5H-pyrido[3,2-b]indol-3-yl}-4-(^2H3)methyl-1-methyl-1H-1,2,3-triazole] here?
Answer: Its IC50 is under 5 nM.

Question: How did the IC50 turn out when [2H]C([2H])([2H])c1nnn(C)c1-c1cnc2c3ccc(C(C)(C)O)cc3n(C(c3ccccc3)C3CCC(F)(F)CC3)c2c1 (stereo not drawn) [Example 204, 2-{5-[(4,4-Difluorocyclohexyl)(phenyl)methyl]-3-[4-(^2H3)methyl-1-methyl-1H-1,2,3-triazol-5-yl]-5H-pyrido[3,2-b]indol-7-yl}propan-2-ol] was run?
Answer: The IC50 was under 5 nM.

Question: With [2H]C([2H])([2H])c1nnn(C)c1-c1cnc2c3c(OC)cc(S(C)(=O)=O)cc3n(C(c3ncccc3F)C3CCOCC3)c2c1 (stereo not drawn) [Example 207, 3-Fluoro-2-[{7-methanesulfonyl-9-methoxy-3-[4-(^2H3)methyl-1-methyl-1H-1,2,3-triazol-5-yl]-5H-pyrido[3,2-b]indol-5-yl}(oxan-4-yl)methyl]pyridine] as the compound, how does the IC50 read?
Answer: The IC50 was under 5 nM.

Question: With [2H]C([2H])([2H])c1nnn(C)c1-c1cnc2c3c(OC)cc(S(C)(=O)=O)cc3n(C(c3ncccc3F)C3CCOCC3)c2c1 (stereo not drawn) [Example 208, 3-Fluoro-2-[{7-methanesulfonyl-9-methoxy-3-[4-(^2H3)methyl-1-methyl-1H-1,2,3-triazol-5-yl]-5H-pyrido[3,2-b]indol-5-yl}(oxan-4-yl)methyl]pyridine] as the compound, how does the IC50 read?
Answer: Its IC50 is under 5 nM.

Question: [2H]C([2H])([2H])c1nnn(C)c1-c1cnc2c3c(OCC)cc(S(C)(=O)=O)cc3n(C(c3ccccc3)C3CCC(F)(F)CC3)c2c1 [Example 209, 5-{5-[(S)-(4,4-Difluorocyclohexyl)(phenyl)methyl]-9-ethoxy-7-methanesulfonyl-5H-pyrido[3,2-b]indol-3-yl}-4-(^2H3)methyl-1-methyl-1H-1,2,3-triazole] was tested. Which IC50 did it give?
Answer: Its IC50 is under 5 nM.
